In US7067535B2, “5-Phenylbenzylamine compounds, process for their production and intermediates for their synthesis” (Tanabe Seiyaku Co., Ltd., priority 2000, dated 2006) one finds melting point data, which are given here for 13 molecules.

Counter-ions that a name gives are not always drawn.

What is called melting point is the temperature of the solid-liquid transition. With `COc1ccc(-c2ccc(F)cc2)cc1CN[C@H]1CCCN[C@H]1c1ccccc1.Cl.Cl`, the melting point is 277 to 279 °C (dec.).

Take `COc1ccc(-c2ccc(F)cc2)cc1[C@@H](C)N[C@H]1CCCN[C@H]1c1ccccc1` (as salt: hydrochloride) [Example 101, [2-methoxy-5-(4-fluorophenyl)-(R)-α-methylbenzyl][(2S,3S)-2-phenylpiperidin-3-yl]amine dihydrochloride]: the melting point was 200 to 204 °C (dec.).

As to `COc1ccc(-c2ccc(F)cc2)cc1[C@H](C)N[C@H]1CCCN[C@H]1c1ccccc1` (as salt: hydrochloride) [Example 102, [2-methoxy-5-(4-fluorophenyl)-(S)-α-methylbenzyl][(2S,3S)-2-phenylpiperidin-3-yl]amine dihydrochloride], the melting point was 274 to 278 °C (dec.).

For the molecule `COc1ccc(-c2ccc(F)cc2)cc1CN[C@H]1CCCN(Cc2nnc[nH]2)[C@H]1c1ccccc1` (as salt: hydrochloride) [Example 103, (2S,3S)-1-(1,2,4-triazol-3-ylmethyl)-2-phenyl-3-[[2-methoxy-5-(4-fluorophenyl)benzyl]amino]piperidine trihydrochloride], the melting point was 208 to 210 °C (dec.).

`COc1ccc(-c2ccc(F)cc2)cc1CN[C@H]1CCCN(Cc2n[nH]c(=O)[nH]2)[C@H]1c1ccccc1` (as salt: hydrochloride) [Example 104, (2S,3S)-1-[5(4H)-oxo-1,2,4-triazol-3-yl]methyl-2-phenyl-3-[[2-methoxy-5-(4-fluorophenyl)benzyl]amino]piperidine dihydrochloride]: the melting point is 198 to 200 °C (dec.).

On to `COc1ccc(-c2ccc(F)cc2)cc1CN[C@H]1CCCN(Cc2n[nH]c(=S)[nH]2)[C@H]1c1ccccc1` (as salt: hydrochloride) [Example 105, (2S,3S)-1-[5(4H)-thioxo-1,2,4-triazol-3-yl]methyl-2-phenyl-3-[[2-methoxy-5-(4-fluorophenyl)benzyl]amino]piperidinedihydrochloride], for which the melting point is 180 to 182 °C (dec.).

Take `COc1ccc(-c2ccc(F)cc2)cc1CN[C@H]1CCCN(Cc2n[nH]c(=O)o2)[C@H]1c1ccccc1` (as salt: hydrochloride) [Example 106, (2S,3S)-1-[5(4H)-oxo-1,3,4-oxadiazol-2-yl]methyl-2-phenyl-3-[[2-methoxy-5-(4-fluorophenyl)benzyl]amino]piperidine-dihydrochloride]: the melting point is 212 to 216 °C (dec.).

`COc1ccc(-c2ccccc2C(F)(F)F)cc1CN[C@H]1CCCN[C@H]1c1ccccc1.Cl.Cl` (racemic) came in with a melting point of 260 to 262 °C.

On to `COc1ccc(-c2ccc(Cl)cc2)cc1CN[C@H]1CCCN[C@H]1c1ccccc1` [Example 7, [2-methoxy-5-(4-chlorophenyl)benzyl][(2S,3S)-2-phenylpiperidin-3-yl]amine], for which the melting point was 272 to 274 °C (dec.).

For `COc1ccc(-c2ccc(C#N)cc2)cc1CN[C@H]1CCCN[C@H]1c1ccccc1` [Example 16, [2-methoxy-5-(4-cyanophenyl)benzyl][(2S,3S)-2-phenylpiperidin-3-yl]amine], the melting point is 277 to 278 °C (dec.).

On to `COc1ccc(-c2ccc(C#N)cc2F)cc1CN[C@H]1CCCN[C@H]1c1ccccc1` [Example 51, [2-methoxy-5-(2-fluoro-4-cyanophenyl)benzyl][(2S,3S)2-phenylpiperidin-3-yl]amine], for which the melting point was 280 to 281 °C (dec.).

Take `COc1ccc(-c2ccc(C#N)cc2F)cc1CN[C@H]1CC[C@@H](C)N[C@H]1c1ccccc1` [Example 112, [2-methoxy-5-(2-fluoro-4-cyanophenyl)benzyl]-[(2S,3S,6R)-6-methyl-2-phenylpiperidin-3-yl]amine]: the melting point was 301 to 302 °C (dec.).

`COc1ccc(-c2ccc(C#N)cc2)cc1CN[C@H]1CC[C@@H](C)N[C@H]1c1ccccc1` [Example 113, [2-methoxy-5-(4-cyanophenyl)benzyl][(2S,3S,6R)6-methyl-2-phenylpiperidin-3-yl]amine] gave a melting point of 298 to 300 °C.
